# Experimental data reported in PubChem BioAssay (NCI).
#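 48-hour exposure; five concentrations; linearly interpolated endpoints. GI50 marks 50% less growth. Definition used: TGI = concentration required for complete inhibition of growth.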
# How the values were obtained:
# Test in all cases: NCI tumour cell line growth inhibition, 48 h
# OVCAR-3 ovarian = test system: OVCAR-3 ovarian
# NCI-H460 lung = test system: NCI-H460 lung
# SNB-19 CNS = test system: SNB-19 CNS
# UACC-257 melanoma = test system: UACC-257 melanoma
# KM12 colon = test system: KM12 colon
# RPMI-8226 leukemia = test system: RPMI-8226 leukemia
# HOP-62 NSCLC = test system: HOP-62 NSCLC
# SF-268 CNS = test system: SF-268 CNS
# SK-OV-3 ovarian = test system: SK-OV-3 ovarian
# T-47D breast = test system: T-47D breast
# A549 NSCLC = test system: A549 NSCLC
# MDA-MB-231 breast = test system: MDA-MB-231 breast
# ACHN renal = test system: ACHN renal
# SN12C renal = test system: SN12C renal
# OVCAR-8 ovarian = test system: OVCAR-8 ovarian
# CAKI-1 renal = test system: CAKI-1 renal
# MDA-MB-435 = test system: MDA-MB-435
# LOX IMVI melanoma = test system: LOX IMVI melanoma
# SF-295 CNS = test system: SF-295 CNS
# MALME-3M melanoma = test system: MALME-3M melanoma
# M14 melanoma = test system: M14 melanoma
# SK-MEL-28 melanoma = test system: SK-MEL-28 melanoma
# IGROV1 ovarian = test system: IGROV1 ovarian
# 786-0 renal = test system: 786-0 renal
# HS 578T breast = test system: HS 578T breast
# RXF 393 renal = test system: RXF 393 renal
# U251 CNS = test system: U251 CNS
# SR leukemia = test system: SR leukemia
# SNB-75 CNS = test system: SNB-75 CNS
structure (smiles),measurement,setting,value
C=CC(=O)N1CCN([C@@H](CC2CC2)c2ccc([C@H](C)Nc3ncc4c(n3)N(CC)C(=O)OC4)cc2)CC1,TGI,OVCAR-3 ovarian,26.5 µM
same,GI50,NCI-H460 lung,14.2 µM
same,TGI,NCI-H460 lung,29.7 µM
same,GI50,SNB-19 CNS,14.4 µM
same,TGI,SNB-19 CNS,27.8 µM
same,GI50,UACC-257 melanoma,10.9 µM
same,TGI,UACC-257 melanoma,25.5 µM
same,GI50,KM12 colon,15.1 µM
same,TGI,KM12 colon,34.6 µM
same,GI50,RPMI-8226 leukemia,4.95 µM
same,TGI,RPMI-8226 leukemia,24.9 µM
same,GI50,HOP-62 NSCLC,12.4 µM
same,TGI,HOP-62 NSCLC,32.9 µM
same,GI50,SF-268 CNS,11.7 µM
same,TGI,SF-268 CNS,28.5 µM
same,GI50,SK-OV-3 ovarian,14.5 µM
same,TGI,SK-OV-3 ovarian,30.2 µM
same,GI50,T-47D breast,14.8 µM
same,TGI,T-47D breast,61.3 µM
same,GI50,A549 NSCLC,11.4 µM
same,TGI,A549 NSCLC,28.7 µM
same,GI50,MDA-MB-231 breast,12 µM
same,TGI,MDA-MB-231 breast,27.4 µM
same,GI50,ACHN renal,14.5 µM
same,TGI,ACHN renal,27.9 µM
same,GI50,SN12C renal,13.7 µM
same,TGI,SN12C renal,31.8 µM
same,GI50,OVCAR-8 ovarian,11.1 µM
same,TGI,OVCAR-8 ovarian,26.7 µM
same,GI50,CAKI-1 renal,5.23 µM
same,TGI,CAKI-1 renal,19 µM
same,GI50,MDA-MB-435,11.1 µM
same,TGI,MDA-MB-435,23.6 µM
same,GI50,LOX IMVI melanoma,11.1 µM
same,TGI,LOX IMVI melanoma,26.6 µM
same,GI50,SF-295 CNS,13 µM
same,TGI,SF-295 CNS,26.3 µM
same,GI50,MALME-3M melanoma,15.9 µM
same,TGI,MALME-3M melanoma,30.8 µM
same,GI50,M14 melanoma,15.5 µM
same,TGI,M14 melanoma,30.1 µM
same,GI50,SK-MEL-28 melanoma,16.6 µM
same,TGI,SK-MEL-28 melanoma,30.5 µM
same,GI50,IGROV1 ovarian,4.58 µM
same,TGI,IGROV1 ovarian,17.5 µM
same,GI50,786-0 renal,11.2 µM
same,TGI,786-0 renal,25.7 µM
same,GI50,HS 578T breast,9.19 µM
same,TGI,HS 578T breast,55.6 µM
same,GI50,RXF 393 renal,4.62 µM
same,TGI,RXF 393 renal,20.9 µM
same,GI50,U251 CNS,11.8 µM
same,TGI,U251 CNS,26.3 µM
same,GI50,SR leukemia,4.05 µM
same,TGI,SR leukemia,22.7 µM
same,GI50,SNB-75 CNS,2.06 µM
same,TGI,SNB-75 CNS,16.7 µM
